Experimental data from US20240166598A1, “COMPOUNDS, COMPOSITIONS, AND METHODS OF USING THE SAME” (priority 2021, published 2024).
Like-named read-outs stand apart in the source and are kept apart here.

Legend:
SARS CoV-2 PLpro [1] = biological target: T1, SARS CoV-2 PLpro (Severe acute respiratory syndrome coronavirus 2 (2019-nCoV) (SARS-CoV-2), UniProt P0DTD1); assay: biochemical; type: biochemical
SARS CoV-2 PLpro [2] = biological target: T1, SARS CoV-2 PLpro; assay: biochemical; type: binding
in vitro = conditions: human, Caco-2
[3] = Table 7, read-out: SPR binding assay KD
[4] = Table 7, read-out: Enzymatic assay IC50
[5] = read-out: Enzyme inhibition IC50
[6] = read-out: SPR binding assays KD

## Cc1ccc(NC2CCN(C(=O)OC(C)(C)C)CC2)cc1C(=O)N[C@H](C)c1cccc2ccccc12 [Example 2, Tert-butyl (R)-4-((4-methyl-3-((1-(naphthalen-1-yl)ethyl)carbamoyl)phenyl)amino)piperidine-1-carboxylate]
SARS CoV-2 PLpro [1]; read-out: Enzymatic assay IC50
  IC50: 1.1 µM
SARS CoV-2 PLpro [2]; read-out: SPR binding assay KD
  Kd: 4.7 µM

## Cc1ccc(N)cc1CNC(C)c1cccc2ccccc12 (centres unmarked) [DY2-64]
SARS CoV-2 PLpro [1]
  PLpro inhibition potency, in words (SAR): sharp decline in potency

## Cc1ccc(N(C)C2CNC2)cc1C(=O)N[C@H](C)c1cccc2c1ccn2CC1CCC1 [Example 50, (R)-5-(azetidin-3-yl(methyl)amino)-N-(1-(1-(cyclobutylmethyl)-1H-indol-4-yl)ethyl)-2-methylbenzamide]
SARS CoV-2 PLpro [1]; read-out: Enzymatic assay IC50
  IC50: 3.3 µM
SARS CoV-2 PLpro [2]; read-out: SPR binding assay KD
  Kd: 14.1 µM

## Cc1ccc(NC2CNC2)cc1C(=O)N[C@H](C)c1cccc2ccccc12 [Example 5, (R)-5-(azetidin-3-ylamino)-2-methyl-N-(1-(naphthalen-1-yl)ethyl)benzamide]
SARS CoV-2 PLpro [2]; [3]
  Kd: 0.81 µM

## Cc1ccc(N)cc1S(=O)(=O)N[C@H](C)c1cccc2ccccc12 [Example 48, (R)-5-amino-2-methyl-N-(1-(naphthalen-1-yl)ethyl)benzenesulfonamide]
SARS CoV-2 PLpro [1]; [4]
  IC50: > 100 µM

## CN(C)CC[C@@H](NC(=O)c1cccc(N(C)C2CNC2)c1)c1cccc2ccccc12 [Example 41, (R)-3-(azetidin-3-yl(methyl)amino)-N-(3-(dimethylamino)-1-(naphthalen-1-yl)propyl)benzamide]
SARS CoV-2 PLpro [1]; [4]
  IC50: > 100 µM

## Cc1ccc(N)cc1C(=O)N[C@H](C)c1cccc2cccnc12 [Example 35, (R)-5-amino-2-methyl-N-(1-(quinolin-8-yl)ethyl)benzamide]
SARS CoV-2 PLpro [2]; [3]
  Kd: > 1000 µM

## Cc1ccc(NC(=O)C2CCN(C(=O)OC(C)(C)C)CC2)cc1C(=O)N[C@H](C)c1cccc2ccccc12 [ZN-2-183]
SARS CoV-2 PLpro [1]; [5]
  IC50: 6 µM
SARS CoV-2 PLpro [2]; [6]
  Kd: 31.1 µM

## Cc1ccc(N(C)C2CNC2)cc1C(=O)N[C@H](C)c1c(OC2CNC2)ccc2ccccc12 [Example 30, (R)-5-(azetidin-3-yl(methyl)amino)-N-(1-(2-(azetidin-3-yloxy)naphthalen-1-yl)ethyl)-2-methylbenzamide]
SARS CoV-2 PLpro [1]; [4]
  IC50: > 100 µM

## Cc1ccc(N)cc1C(=O)N[C@H](C)c1c(O)ccc2ccccc12 [Example 27, (R)-5-amino-N-(1-(2-hydroxynaphthalen-1-yl)ethyl)-2-methylbenzamide]
SARS CoV-2 PLpro [1]; [4]
  IC50: > 100 µM
SARS CoV-2 PLpro [2]; read-out: SPR binding assay KD
  Kd: 184 µM

## Cc1ccc(NC2CNC2)cc1C(=O)N[C@H](C)c1cccc(-c2ncc(CN3CCCC3)s2)c1
SARS CoV-2 PLpro [1]; [4]
  IC50: 3.14 µM

## Cc1ccc(NC2CNC2)cc1C(=O)N[C@H](C)c1cccc2ccccc12 [ZN-2-184]
SARS CoV-2 PLpro [1]; compared with GRL0617 / parent
  PLpro inhibition potency, in words (SAR): two-fold improvement relative to GRL0617
SARS CoV-2 PLpro [1]; [5]
  IC50: 1.01 µM
SARS CoV-2 PLpro [2]; KD2
  Kd: 1.17 µM
SARS CoV-2 PLpro [2]; KD3
  Kd: 1.06 µM
SARS CoV-2 PLpro [2]; KD4
  Kd: 0.856 µM
SARS CoV-2 PLpro [2]; SPR
  rate of association relative to GRL0617: twofold increase in rate of association
SARS CoV-2 PLpro [2]; SPR association rate, average of replicates
  Ave ka: 340000 M⁻¹ s⁻¹
SARS CoV-2 PLpro [2]; SPR association rate, replicate 1
  ka1: 426000 M⁻¹ s⁻¹
SARS CoV-2 PLpro [2]; SPR association rate, replicate 2
  ka2: 348000 M⁻¹ s⁻¹
SARS CoV-2 PLpro [2]; SPR association rate, replicate 3
  ka3: 231000 M⁻¹ s⁻¹
SARS CoV-2 PLpro [2]; SPR association rate, replicate 4
  ka4: 356000 M⁻¹ s⁻¹
SARS CoV-2 PLpro [2]; SPR dissociation rate, average of replicates
  Ave kd: 0.349 s⁻¹
SARS CoV-2 PLpro [2]; SPR dissociation rate, replicate 1
  kd1: 0.438 s⁻¹
SARS CoV-2 PLpro [2]; SPR dissociation rate, replicate 2
  kd2: 0.407 s⁻¹
SARS CoV-2 PLpro [2]; SPR dissociation rate, replicate 3
  kd3: 0.246 s⁻¹
SARS CoV-2 PLpro [2]; SPR dissociation rate, replicate 4
  kd4: 0.305 s⁻¹
SARS CoV-2 PLpro [2]; [6]
  Kd: 1.03 µM

## Cc1ccc(NC2CNC2)cc1C(=O)N[C@H](C)c1cccc(-c2ccc(CNC(=O)C(F)(F)C(F)(F)F)s2)c1
SARS CoV-2 PLpro [1]; [4]
  IC50: 0.442 µM

## Cc1ccc(N)cc1C(=O)NC(C)c1cccc2cc[nH]c12 (centres unmarked) [Example 18, N-(1-(1H-indol-7-yl)ethyl)-5-amino-2-methylbenzamide]
SARS CoV-2 PLpro [1]; read-out: Enzymatic assay IC50
  IC50: 4.7 µM
SARS CoV-2 PLpro [2]; read-out: SPR binding assay KD
  Kd: 30.3 µM

## Cc1ccc(NC2CN(C(=O)OC(C)(C)C)C2)cc1C(=O)N[C@H](C)c1cccc2ccccc12 [Example 1, Tert-butyl (R)-3-((4-methyl-3-((1-(naphthalen-1-yl)ethyl)carbamoyl)phenyl)amino)azetidine-1-carboxylate]
SARS CoV-2 PLpro [1]; read-out: Enzymatic assay IC50
  IC50: 6.1 µM
SARS CoV-2 PLpro [2]; read-out: SPR binding assay KD
  Kd: 16 µM

## Cc1ccc(NC2CCN(C(=O)OC(C)(C)C)CC2)cc1C(=O)N[C@H](C)c1cccc2ccccc12 [ZN-2-181]
SARS CoV-2 PLpro [1]; [5]
  IC50: 1.1 µM
SARS CoV-2 PLpro [2]; [6]
  Kd: 4.7 µM

## C[C@H]1O[C@@H](O[C@H]2[C@@H](O)C[C@H](O[C@H]3[C@@H](O)C[C@H](O[C@H]4CC[C@@]5(C)[C@H](CC[C@@H]6[C@@H]5C[C@@H](O)[C@]5(C)[C@@H](C7=CC(=O)OC7)CC[C@]65O)C4)O[C@@H]3C)O[C@@H]2C)C[C@H](O)[C@@H]1O [Digoxin]
In vitro
  Papp A→B: 0.4 ×10⁻⁶ cm/s
  Papp B→A: 10.4 ×10⁻⁶ cm/s

## Cc1ccc([N+](=O)[O-])cc1C(=O)NC(C)c1c[nH]c2ccccc12 (centres unmarked)
SARS CoV-2 PLpro [1]; [4]
  IC50: > 100 µM

## Cc1ccc(N)cc1C(=O)NC(CO)c1cccc2ccccc12 (centres unmarked) [Example 26, 5-amino-N-(2-hydroxy-1-(naphthalen-1-yl)ethyl)-2-methylbenzamide]
SARS CoV-2 PLpro [1]; [4]
  IC50: ~100 µM

## Cc1ccc(NC(=O)C2CN(C(=O)OC(C)(C)C)C2)cc1C(=O)N[C@H](C)c1cccc2ccccc12 [Example 3, Tert-butyl (R)-3-((4-methyl-3-((1-(naphthalen-1-yl)ethyl)carbamoyl)phenyl)carbamoyl)azetidine-1-carboxylate]
SARS CoV-2 PLpro [1]; read-out: Enzymatic assay IC50
  IC50: 5.5 µM
SARS CoV-2 PLpro [2]; read-out: SPR binding assay KD
  Kd: 32.6 µM

## Cc1ccc(N)cc1C(=O)NC(CO)c1cccc2ccccc12 (centres unmarked) [ZN-3-13]
SARS CoV-2 PLpro [1]; Table 11, read-out: Enzyme inhibition IC50
  IC50: ~100 µM
SARS CoV-2 PLpro [2]; [6]
  Kd: 39.1 µM

## CC(C)NCC(O)COc1cccc2ccccc12 (centres unmarked) [Propranolol]
In vitro
  Papp A→B: 17.9 ×10⁻⁶ cm/s
  Papp B→A: 18.3 ×10⁻⁶ cm/s
  efflux ratio: 1.02

## Cc1ccc(NC2CNC2)cc1C(=O)N[C@H](C)c1cccc(-c2ccc(CO)s2)c1
SARS CoV-2 PLpro [1]; [4]
  IC50: 1.57 µM

## Cc1ccc(NC(=O)C2CCN(C(=O)OC(C)(C)C)CC2)cc1C(=O)N[C@H](C)c1cccc2ccccc12 [Example 4, Tert-butyl (R)-4-((4-methyl-3-((1-(naphthalen-1-yl)ethyl)carbamoyl)phenyl)carbamoyl)piperidine-1-carboxylate]
SARS CoV-2 PLpro [1]; read-out: Enzymatic assay IC50
  IC50: 6 µM
SARS CoV-2 PLpro [2]; read-out: SPR binding assay KD
  Kd: 31.1 µM

## Cc1ccc(NC2CN(C(=O)OC(C)(C)C)C2)cc1C(=O)N[C@H](C)c1cccc2ccccc12 [ZN-2-180]
SARS CoV-2 PLpro [1]; [5]
  IC50: 6.08 µM
SARS CoV-2 PLpro [2]; [6]
  Kd: 16 µM

## (R)-6-amino-3-methyl-N- (1-(naphthalen-1- yl)ethyl)picolinamide [Example 40]
SARS CoV-2 PLpro [1]; read-out: Enzymatic assay IC50
  IC50: 10 to 100 µM
SARS CoV-2 PLpro [2]; read-out: SPR binding assay KD
  Kd: > 1000 µM

## C=C(N[C@H](C)c1cccc2ccccc12)C(=O)c1cc(N(C)C2CNC2)ccc1Cl [ZN-3-70]
SARS CoV-2 PLpro [1]; Table 10, read-out: Enzyme inhibition IC50
  IC50: 10.7 µM
SARS CoV-2 PLpro [2]; Table 10, read-out: SPR binding assays KD
  Kd: 41.9 µM

## C[C@@H](NC(=O)c1cc(NC2CNC2)ccc1Cl)c1csc2ccccc12 [Example 54, (R)-5-(azetidin-3-ylamino)-N-(1-(benzo[b]thiophen-3-yl)ethyl)-2-chlorobenzamide]
SARS CoV-2 PLpro [1]; read-out: Enzymatic assay IC50
  IC50: 8.5 µM
SARS CoV-2 PLpro [2]; read-out: SPR binding assay KD
  Kd: 33 µM

## Cc1ccc(CNCC(=O)O)cc1C(=O)N[C@H](C)c1cccc2ccccc12 [ZN-3-56]
SARS CoV-2 PLpro [1]; compared with GRL0617 / parent
  PLpro inhibition potency, in words (SAR): slight improvement of potency over GRL0617

## Cc1ccc(N)cc1S(=O)(=O)NC(C)c1cccc2ccccc12 (centres unmarked) [DY3-63]
SARS CoV-2 PLpro [1]
  PLpro inhibition potency, in words (SAR): sharp decline in potency

## CCOC(=O)[C@@H]1CC[C@H](NCc2cnc(-c3cccc([C@@H](C)NC(=O)c4cc(NC5CNC5)ccc4C)c3)s2)C1
SARS CoV-2 PLpro [1]; [4]
  IC50: 0.496 µM

## Cc1ccc(NC2CNC2)cc1C(=O)N[C@H](C)c1cccc(-c2ccc(CN[C@H]3CC[C@@H](OC(=O)/C=C/c4cccnc4)C3)s2)c1
SARS CoV-2 PLpro [1]; [4]
  IC50: 0.387 µM
